For assay [1], the target named is T1, Kv1.3 potassium channel (Homo sapiens, UniProt P22001).
T1 construct: expressed in transfected cells
In words: Kv1.3 potassium channel blocker activity, automated whole-cell patch clamp (Patchliner) in CHO-K1 cells stably expressing Kv1.3. Format: cell-based. The settings on record: 30 nM-100 μM. In outline: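 Whole-cell automated patch clamp in CHO-K1 cells, pH 7.4 external/7.2 internal; 100 ms steps from −90 to +40 mV at 0.1 Hz, 20-pulse trains. Cumulative 30 nM–100 μM on one cell, ≤10 s per concentration; last-pulse current normalized to control, IC50 from Hill fit.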

Assay [2] has as its target T2, hERG channel (Homo sapiens, UniProt Q12809).
T2 construct: expressed in transfected cells
The assay is described as follows: hERG electrophysiology, automated whole-cell patch clamp (Patchliner) in CHO-K1 cells stably expressing hERG. Format: cell-based. The settings on record: 30 nM-100 μM. On the procedure: This assay is used to evaluate the disclosed compounds' inhibition activities against the hERG channel.
CHO-K1 cells stably expressing hERG were grown in Ham's F-12 Medium with glutamine containing 10% heat-inactivated FBS, 1% penicillin/streptomycin, hygromycin (100 μg/ml) and G418 (100 μg/ml). Cells were grown in culture flasks at 37° C. in a 5% CO2-humidified incubator.
The cells were bathed in an extracellular solution containing 140 mM NaCl, 4 mM KCl, 2 mM CaCl2), 1 mM MgCl2, 5 mM Glucose, 10 mM HEPES; pH adjusted to 7.4 with NaOH; 295-305 mOsm. The internal solution contained 50 mM KCl, 10 mM NaCl, 60 mM KF, 20 mM EGTA, 10 mM HEPES; pH adjusted to 7.2 with KOH; 285 mOsm. All compounds were dissolved in DMSO at 30 mM. Compound stock solutions were freshly diluted with external solution to concentrations of 30 nM, 100 nM, 300 nM, 1 μM, 3 μM, 10 μM, 30 μM and 100 μM. The highest content of DMSO (0.3%) was present in 100 μM.
The voltage protocol (see Table B) was designed to simulate voltage changes during a cardiac action potential with a 300 ms depolarization to +20 mV (analogous to the plateau phase of the cardiac action potential), a repolarization for 300 ms to −50 mV (inducing a tail current) and a final step to the holding potential of −80 mV. The pulse frequency was 0.3 Hz. Control (compound-free) and compound pulse trains for each compound concentration applied contained 70 pulses.
Whole-cell current recordings and compound application were enabled by means of an automated patch clamp platform Patchliner (Nanion). EPC 10 patch clamp amplifier (HEKA) along with Patchmaster software (HEKA Elektronik Dr. Schulze GmbH) was used for data acquisition. Data were sampled at 10 kHz without filtering. Increasing compound concentrations were applied consecutively to the same cell without washouts in between.
AUC and PEAK values were obtained with Patchmaster (HEKA Elektronik Dr. Schulze GmbH). To determine IC50 the last single pulse in the pulse train corresponding to a given compound concentration was used. Obtained AUC and PEAK values in the presence of compound were normalized to control values in the absence of compound. Using Origin (OridinLab), IC50 was derived from data fit to Hill equation: Icompound/Icontrol=(100−A)/(1+([compound]/IC50)nH)+A, where IC50 is the concentration at which current inhibition is half-maximal, [compound] is the applied compound concentration, A is the fraction of current that is not blocked and nH is the Hill coefficient.

Molecules are shown by their SMILES. A value given as a limit tells only on which side of the number the result lay.

T2 sequence (Q12809 whole entry): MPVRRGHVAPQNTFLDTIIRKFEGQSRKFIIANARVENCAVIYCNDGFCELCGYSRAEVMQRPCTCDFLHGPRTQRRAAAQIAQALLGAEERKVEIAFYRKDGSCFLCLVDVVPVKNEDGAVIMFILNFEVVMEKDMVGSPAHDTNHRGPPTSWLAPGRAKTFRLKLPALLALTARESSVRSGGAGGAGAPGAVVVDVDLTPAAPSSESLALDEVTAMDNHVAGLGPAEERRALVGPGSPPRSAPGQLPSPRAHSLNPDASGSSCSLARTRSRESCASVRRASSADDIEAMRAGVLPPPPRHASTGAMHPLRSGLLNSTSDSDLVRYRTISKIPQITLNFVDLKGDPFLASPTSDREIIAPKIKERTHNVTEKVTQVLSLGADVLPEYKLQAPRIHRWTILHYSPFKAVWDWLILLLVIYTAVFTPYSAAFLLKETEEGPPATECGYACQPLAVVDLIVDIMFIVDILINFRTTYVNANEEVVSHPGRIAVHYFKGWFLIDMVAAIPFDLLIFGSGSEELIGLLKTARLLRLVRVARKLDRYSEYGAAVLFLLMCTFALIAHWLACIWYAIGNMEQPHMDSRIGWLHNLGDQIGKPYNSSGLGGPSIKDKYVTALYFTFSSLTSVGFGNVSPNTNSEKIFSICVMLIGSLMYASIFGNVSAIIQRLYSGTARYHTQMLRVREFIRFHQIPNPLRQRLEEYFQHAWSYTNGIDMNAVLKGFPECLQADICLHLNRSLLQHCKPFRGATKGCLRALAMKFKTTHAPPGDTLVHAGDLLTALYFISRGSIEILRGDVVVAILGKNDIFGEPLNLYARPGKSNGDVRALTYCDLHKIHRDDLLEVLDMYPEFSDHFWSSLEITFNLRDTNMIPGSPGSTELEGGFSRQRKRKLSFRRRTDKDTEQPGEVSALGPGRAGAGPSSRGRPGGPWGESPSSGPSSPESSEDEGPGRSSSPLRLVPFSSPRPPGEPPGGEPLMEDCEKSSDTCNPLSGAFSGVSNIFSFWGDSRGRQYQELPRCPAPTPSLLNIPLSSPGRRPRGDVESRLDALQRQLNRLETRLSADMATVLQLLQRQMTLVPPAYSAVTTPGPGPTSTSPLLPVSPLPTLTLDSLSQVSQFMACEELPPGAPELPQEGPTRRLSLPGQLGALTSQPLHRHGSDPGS
T1 sequence (P22001 whole entry): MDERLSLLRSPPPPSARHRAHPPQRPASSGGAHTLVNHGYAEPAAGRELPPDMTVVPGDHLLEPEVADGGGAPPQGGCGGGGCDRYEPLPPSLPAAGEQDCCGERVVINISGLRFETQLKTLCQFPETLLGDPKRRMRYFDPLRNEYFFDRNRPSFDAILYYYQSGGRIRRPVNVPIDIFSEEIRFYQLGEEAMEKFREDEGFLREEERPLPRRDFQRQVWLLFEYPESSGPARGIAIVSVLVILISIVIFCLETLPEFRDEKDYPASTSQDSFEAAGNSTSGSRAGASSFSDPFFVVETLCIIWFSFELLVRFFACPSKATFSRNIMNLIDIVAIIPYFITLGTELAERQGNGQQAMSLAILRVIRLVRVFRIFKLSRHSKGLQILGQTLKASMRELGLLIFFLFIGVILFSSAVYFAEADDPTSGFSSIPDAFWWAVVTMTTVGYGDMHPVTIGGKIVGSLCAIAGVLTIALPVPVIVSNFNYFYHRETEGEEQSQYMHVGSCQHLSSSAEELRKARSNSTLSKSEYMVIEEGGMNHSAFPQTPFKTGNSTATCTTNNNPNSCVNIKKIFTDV

On to `O=C([C@H]1CC[C@](O)(CO)C1)N1CC[C@]2(C1)C(=O)Nc1cc(Cl)c(Cl)cc12` (relative stereo) [Compound 95, (S)-5,6-dichloro-1′-((1R,3S)-rel-3-hydroxy-3-(hydroxymethyl)cyclopentane-1-carbonyl)spiro[indoline-3,3′-pyrrolidin]-2-one isomer 1], for which the IC50 in assay [1] is below 1 µM; in assay [2], above 100 µM.

Turning to `COC[C@@H]1C[C@H](C(=O)N2CC[C@]3(C2)C(=O)Nc2cc(Cl)c(Cl)cc23)CN1` [Compound 109, (3S)-5,6-dichloro-1′-[(3S,5S)-5-(methoxymethyl)pyrrolidine-3-carbonyl]-1H-spiro[indole-3,3′-pyrrolidin]-2-one], the IC50 was below 1 µM in assay [1] and above 30 µM in assay [2].

On to `O=C(CCCO)N1CC[C@]2(C1)C(=O)Nc1cc(Cl)c(Cl)cc12` [Compound 56, (S)-5,6-dichloro-1′-(4-hydroxybutanoyl)spiro[indoline-3,3′-pyrrolidin]-2-one], for which the values for the IC50 in assay [1] and in assay [2] were below 3 µM and above 100 µM, respectively.

Turning to `O=C([C@@H]1CNC[C@H]1O)N1CC[C@]2(C1)C(=O)Nc1cc(Cl)c(Cl)cc12` (single isomer, unassigned) [Compound 3], the figures for the 50% inhibitory concentration (IC50) in assay [1] and in assay [2] were below 0.1 µM and above 100 µM, respectively.

`O=C([C@H]1CN[C@H](CO)C1)N1CC[C@]2(C1)C(=O)Nc1cc(Cl)c(Cl)cc12` [Compound 114, (3S)-5,6-dichloro-1′-[(3R,5S)-5-(hydroxymethyl)pyrrolidine-3-carbonyl]-1H-spiro[indole-3,3′-pyrrolidin]-2-one]: the results for the 50% inhibitory concentration (IC50) in assay [1] and in assay [2] were below 0.3 µM and above 100 µM, respectively.

As for `Nc1cc(C(=O)N2CC[C@]3(C2)C(=O)Nc2cc(Cl)c(Cl)cc23)ccn1` [Compound 42, (S)-1′-(2-aminoisonicotinoyl)-5,6-dichlorospiro[indoline-3,3′-pyrrolidin]-2-one], the IC50 is below 0.3 µM in assay [1] and above 10 µM in assay [2].

Turning to `O=C(C[C@@H]1CCNC1)N1CC[C@]2(C1)C(=O)Nc1cc(Cl)c(Cl)cc12` [Compound 60, (S)-5,6-dichloro-1′-(2-((S)-pyrrolidin-3-yl)acetyl)spiro[indoline-3,3′-pyrrolidin]-2-one], the IC50 in assay [1] was below 0.3 µM; in assay [2] it was above 100 µM.

Regarding `O=C(c1cn[nH]c1)N1CC[C@]2(C1)C(=O)Nc1cc(Cl)c(Cl)cc12` [Compound 35, (S)-5,6-dichloro-1′-(1H-pyrazole-4-carbonyl)spiro[indoline-3,3′-pyrrolidin]-2-one], the IC50 in assay [1] was below 1 µM; in assay [2], above 100 µM.

With `O=C(c1cc[nH]n1)N1CC[C@]2(C1)C(=O)Nc1cc(Cl)c(Cl)cc12` [Compound 53, (S)-5,6-dichloro-1′-(1H-pyrazole-3-carbonyl)spiro[indoline-3,3′-pyrrolidin]-2-one], the IC50 is below 3 µM in assay [1] and above 10 µM in assay [2].

`O=C([C@@H]1CN[C@@H](CO)C1)N1CC[C@]2(C1)C(=O)Nc1cc(Cl)c(Cl)cc12` [Compound 115, (S)-5,6-dichloro-1′-((3S,5R)-5-(hydroxymethyl)pyrrolidine-3-carbonyl)spiro[indoline-3,3′-pyrrolidin]-2-one]: the IC50 in assay [1] was below 0.1 µM; in assay [2], above 100 µM.

For `COC[C@H]1C[C@H](C(=O)N2CC[C@]3(C2)C(=O)Nc2cc(Cl)c(Cl)cc23)CN1` [Compound 112, (S)-5,6-dichloro-1′-((3S,5R)-5-(methoxymethyl)pyrrolidine-3-carbonyl)spiro[indoline-3,3′-pyrrolidin]-2-one], the IC50 was below 0.3 µM in assay [1] and above 100 µM in assay [2].

Turning to `O=C(Cc1cn[nH]c1)N1CC[C@]2(C1)C(=O)Nc1cc(Cl)c(Cl)cc12` [Compound 72, (S)-1′-(2-(1H-pyrazol-4-yl)acetyl)-5,6-dichlorospiro[indoline-3,3′-pyrrolidin]-2-one], in assay [1], the IC50 was below 3 µM.

In assay [1], `O=C([C@H]1CCCO1)N1CC[C@]2(C1)C(=O)Nc1cc(Cl)c(Cl)cc12` [Compound 20, (S)-5,6-dichloro-1′-((R)-tetrahydrofuran-2-carbonyl)spiro[indoline-3,3′-pyrrolidin]-2-one] had an IC50 below 10 µM.

The molecule `NC[C@H](O)C(=O)N1CC[C@]2(C1)C(=O)Nc1cc(Cl)c(Cl)cc12` [Compound 54, (S)-1′-((S)-3-amino-2-hydroxypropanoyl)-5,6-dichlorospiro[indoline-3,3′-pyrrolidin]-2-one] displayed a concentration for half-maximal inhibition (IC50) in assay [1] below 3 µM.

On to `O=C([C@@H]1C[C@@H]1CO)N1CC[C@]2(C1)C(=O)Nc1cc(Cl)c(Cl)cc12` (relative stereo) [Compound 151, (S)-5,6-dichloro-1′-(1R,2S)-rel-2-(hydroxymethyl)cyclopropane-1-carbonyl)spiro[indoline-3,3′-pyrrolidin]-2-one], for which the IC50 in assay [1] was below 1 µM.

In turn, `O=C([C@@H]1CNCCO1)N1CC[C@]2(C1)C(=O)Nc1cc(Cl)c(Cl)cc12` [Compound 11, (S)-5,6-dichloro-1′-((S)-morpholine-2-carbonyl)spiro[indoline-3,3′-pyrrolidin]-2-one] gave a concentration for half-maximal inhibition (IC50) in assay [1] below 3 µM.

For `C[C@H](O)CC(=O)N1CC[C@]2(C1)C(=O)Nc1cc(Cl)c(Cl)cc12` [Compound 88, (S)-5,6-dichloro-1′-((S)-3-hydroxybutanoyl)spiro[indoline-3,3′-pyrrolidin]-2-one], the IC50 in assay [1] is below 3 µM.

`Cn1ccc(C(=O)N2CC[C@]3(C2)C(=O)Nc2cc(Cl)c(Cl)cc23)cc1=O` [Compound 82, (S)-5,6-dichloro-1′-(1-methyl-2-oxo-1,2-dihydropyridine-4-carbonyl)spiro[indoline-3,3′-pyrrolidin]-2-one] had an IC50 in assay [1] below 3 µM.

In assay [1], `O=C([C@@H]1[C@@H]2CN[C@H]1C2)N1CC[C@]2(C1)C(=O)Nc1cc(Cl)c(Cl)cc12` (single isomer, unassigned; isomer 2) [Compound 58] came in with an IC50 below 1 µM.

Turning to `C[C@@H]1CN(C(=O)CO)CC12C(=O)Nc1cc(Cl)c(Cl)cc12` (single isomer, unassigned; diastereoisomer 1) [Compound 130, 5,6-dichloro-1′-(2-hydroxyacetyl)-4′-methylspiro[indoline-3,3′-pyrrolidin]-2-one diastereoisomer 1], the IC50 in assay [1] was below 30 µM.

In the case of `O=C1Nc2cc(Cl)c(Cl)cc2[C@]12CCN(c1ccn[nH]1)C2` (single isomer, unassigned) [Compound 153], the IC50 in assay [1] is below 3 µM.

On to `O=C(N1CC[C@]2(C1)C(=O)Nc1cc(Cl)c(Cl)cc12)[C@@]1(O)CCNC1` (single isomer, unassigned; isomer 2) [Compound 31], for which the IC50 in assay [1] was below 3 µM.

In assay [1], `O=C([C@H]1CC[C@H](CO)C1)N1CC[C@]2(C1)C(=O)Nc1cc(Cl)c(Cl)cc12` (relative stereo) [Compound 99, (3S)-5,6-dichloro-1′-[(1R,3R)-rel-3-(hydroxymethyl)cyclopentanecarbonyl]-1H-spiro[indole-3,3′-pyrrolidin]-2-one isomer 1] had an IC50 below 3 µM.

As to `O=C(C[C@@H]1CCCN1)N1CC[C@]2(C1)C(=O)Nc1cc(Cl)c(Cl)cc12` [Compound 61, (S)-5,6-dichloro-1′-(2-((S)-pyrrolidin-2-yl)acetyl)spiro[indoline-3,3′-pyrrolidin]-2-one], in assay [1], the 50% inhibitory concentration (IC50) was below 1 µM.

Turning to `O=C(c1cc(CO)[nH]n1)N1CC[C@]2(C1)C(=O)Nc1cc(Cl)c(Cl)cc12` [Compound 79, (S)-5,6-dichloro-1′-(5-(hydroxymethyl)-1H-pyrazole-3-carbonyl)spiro[indoline-3,3′-pyrrolidin]-2-one], the IC50 in assay [1] was below 3 µM.

Turning to `CNCC(=O)N1CC[C@]2(C1)C(=O)Nc1cc(Cl)c(Cl)cc12` [Compound 18, (S)-5,6-dichloro-1′-(methylglycyl)spiro[indoline-3,3′-pyrrolidin]-2-one], the IC50 in assay [1] is below 3 µM.

As to `O=C(N1CC[C@]2(C1)C(=O)Nc1cc(Cl)c(Cl)cc12)C1(O)CC1` [Compound 85, (S)-5,6-dichloro-1′-(1-hydroxycyclopropane-1-carbonyl)spiro[indoline-3,3′-pyrrolidin]-2-one], in assay [1], the IC50 was below 10 µM.
